Measurements from patent publication US20080020068A1, “Use Of Trisubstituted Benzopyranones” (Dr.Willmar Schwabe GmbH & Co. KG, priority 2004, published 2008).
Marks after values point to notes of the source that are not given here. Values belong to the compound of their own block, whether it stands above or below them.

Key:
[1] = test system: autoxidation of lipids (brain tissue of male mice); experiment: Inhibition of autoxidation of lipids in mouse brain homogenate (chemiluminescence); type: biochemical, mice (NMRI); conditions: chemiluminescence over 60 minutes, vs solvent control
Description: The autoxidation of lipids is associated with the emission of light. The determination of this extraordinarily weak chemiluminescence can be used for both quantifying peroxides and evaluating the efficacy of antioxidants. Brain tissue of male mice (NMRI; 20-30 g; Centre d'Elevage Janvier, Le Genest-Saint Isle, France) served as lipid-rich tissue in the present investigations. After its extraction the brain was washed with ice-cold phosphate-buffered physiological saline solution (PBS, pH 7.4) and freed from meninges and residual blood. The tissue samples were homogenised with 4 times their volume (v/w) made up of PBS and centrifugated at 1000×g and 4° C. for 10 minutes. The supernatants were immediately diluted with the same buffer to 3 times their volume and stored on ice. 250 μl of the diluted supernatant was transferred into a test tube and incubated for 10 minutes at 37° C. in a 6-channel luminometer (Multi-Biolumat LB 9505 C, Berthold, Bad Wildbad). After adding 25 μl of compound II in PBS added with 2.5% DMSO the incubation was continued for further 10 minutes. Then the intensity of the chemiluminescence (CL) was determined over a period of 60 minutes. The percentage of the inhibition of the autoxidation was calculated in comparison to the solvent control (PBS added with 2.5% DMSO) measured simultaneously. […]

TNF-α = experiment: Synthesis of TNF-α in LPS-stimulated activated murine peritoneal macrophages; type: cell-based, mouse; conditions: for TNF-α: LPS 1 μg/ml, 24 h, average of three parallel tests; for TNF-α Effect (%): percentage change vs solvent control
Method: (§1) The influence of compound II on the synthesis of the proinflammatory cytokines IL-1β, TNF-α and IL-6 was determined by using activated murine peritoneal macrophages. In order to recover the activated macrophages 3×10^9 killed coryn bacterium parvum bacteria (Changzhou Yanshen Co. Ltd., Changzhou, China) in 0.5 ml PBS were injected intraperitoneally into male NMRI mice (Centre d'Elevage Janvier, Le Genest-Saint Isle, France). 6 days later the abdominal cavity was rinsed with 2.5 ml Hanks' balanced saline solution (HBSS) free of calcium and magnesium added with 10 U/ml heparine. The cells were resuspended at a concentration of 2×10^6 cells/ml in complete RPMI medium supplemented with 10% fetal bovine serum. […] cell suspension were filled into the wells of 96-well microtiter plates, respectively. After an incubation period of 2 h non-adherent cells were removed and the remaining cell lawn was washed twice with culture medium (37° C.). The macrophages were preincubated for 30 min. with compound II and then the synthesis of proinflammatory cytokines was induced by adding 1 μg/ml lipopolysaccharide of E. coli (serotype 0127:B8, Sigma, Deisenhofen). After incubating for 24 h (37° C., 5% CO2 in air) the cells were lysed by freezing and thawing for three times, the cell supernatants were recovered and frozen at −80° C. until analysed. The determination of the cytokine concentration in the cell supernatant was effected by means of commercial test kits (Duosets IL-1β, TNF-α and IL-6, R&D, Wiesbaden) in correspondence with the manufacturer's instructions. All investigations were conducted three times. The influence of compound II on the synthesis of the cytokines was evaluated in comparison to solvent controls (0.1% DMSO in complete RPMI medium) that were tested simultaneously.

cyclooxygenase-2 (COX2) = molecular target: T1, cyclooxygenase-2 (COX2) (Homo sapiens, UniProt P35354); experiment: Cyclooxygenase-2 activity in human whole blood (PGE2 after aspirin pretreatment and LPS); type: cell-based; conditions: for PGE2: aspirin pretreated, LPS 10 μg/ml, 18 h; for PGE2 Effect (%): percentage change vs solvent control
T1 construct: to induce the expression of COX2 25 μl of lipopolysaccharide of E. coli; endogenous in cells; host or cells: heparinised human whole blood, aspirin-pretreated, COX2 induced with LPS
T1 sequence (P35354 18-604): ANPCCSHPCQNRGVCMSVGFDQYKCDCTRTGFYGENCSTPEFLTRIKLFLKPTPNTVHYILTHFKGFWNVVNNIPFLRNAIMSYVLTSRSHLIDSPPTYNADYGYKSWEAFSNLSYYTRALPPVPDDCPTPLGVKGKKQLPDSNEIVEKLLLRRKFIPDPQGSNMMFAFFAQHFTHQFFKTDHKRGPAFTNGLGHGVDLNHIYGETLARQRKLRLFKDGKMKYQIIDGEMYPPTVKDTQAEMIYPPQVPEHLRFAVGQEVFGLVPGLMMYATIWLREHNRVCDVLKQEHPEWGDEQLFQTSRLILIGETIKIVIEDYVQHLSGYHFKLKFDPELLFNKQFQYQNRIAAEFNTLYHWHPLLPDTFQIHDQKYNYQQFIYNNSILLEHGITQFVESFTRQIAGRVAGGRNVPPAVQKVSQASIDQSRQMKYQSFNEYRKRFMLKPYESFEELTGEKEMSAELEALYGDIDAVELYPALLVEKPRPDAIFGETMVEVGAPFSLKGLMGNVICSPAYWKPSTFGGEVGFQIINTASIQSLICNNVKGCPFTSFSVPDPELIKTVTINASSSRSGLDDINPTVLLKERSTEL
Method: (§2) Heparinised human whole blood was used for the investigations. 100 μl of whole blood were added into each well of 96-well microtiter plates. Separated plates were used for the determination of the cyclooxygenase-1 (COX1) and lipoxygenase (LO) activiy as well as for the induction of cyclooxygenase-2 (COX2).
Then compound II and the solvent (DMEM with 0.1% DMSO), respectively, were added in a volume of 25 μl. Moreover, to induce the expression of COX2 25 μl of lipopolysaccharide of E. coli (serotype 0127:B8, final concentration 10 μg/ml) were added. After incubating for 18 h at 37° C. the plasma was recovered as described above and also stored at −80° C. until analysed.
(§3) In the plasma samples TXB2, PGE2 and cystenyl leukotrienes (cystenyl-LT) were determined as parameters for the COX1, COX2 and LO activity. For the analysis commercial EIA test kits (TXB2 and PGE2: Caymann/IBL, Hamburg; cystenyl leukotrienes: CAST-2000, Milenia, Bad Nauheim) were used in accordance with the manufacturers' instructions. […] This spectrum of efficacy is to be regarded as extremely advantageous because in the therapeutic use of compound II the side effects typical of COX1 inhibitors, such as gastrointestinal complications (erosions, ulcerations) or hemorrhages due to the inhibition of the thrombocyte aggregation need therefore not to be taken into consideration.

cyclooxygenase-1 (COX1) = molecular target: T2, cyclooxygenase-1 (COX1) (Homo sapiens, UniProt P23219); experiment: Cyclooxygenase-1 activity in human whole blood (TXB2 after A23187); type: cell-based; conditions: for TXB2: A23187 50 μM; for TXB2 Effect (%): percentage change vs solvent control
T2 construct: endogenous in cells; host or cells: heparinised human whole blood (platelets), stimulated with A23187
T2 sequence (P23219 24-599): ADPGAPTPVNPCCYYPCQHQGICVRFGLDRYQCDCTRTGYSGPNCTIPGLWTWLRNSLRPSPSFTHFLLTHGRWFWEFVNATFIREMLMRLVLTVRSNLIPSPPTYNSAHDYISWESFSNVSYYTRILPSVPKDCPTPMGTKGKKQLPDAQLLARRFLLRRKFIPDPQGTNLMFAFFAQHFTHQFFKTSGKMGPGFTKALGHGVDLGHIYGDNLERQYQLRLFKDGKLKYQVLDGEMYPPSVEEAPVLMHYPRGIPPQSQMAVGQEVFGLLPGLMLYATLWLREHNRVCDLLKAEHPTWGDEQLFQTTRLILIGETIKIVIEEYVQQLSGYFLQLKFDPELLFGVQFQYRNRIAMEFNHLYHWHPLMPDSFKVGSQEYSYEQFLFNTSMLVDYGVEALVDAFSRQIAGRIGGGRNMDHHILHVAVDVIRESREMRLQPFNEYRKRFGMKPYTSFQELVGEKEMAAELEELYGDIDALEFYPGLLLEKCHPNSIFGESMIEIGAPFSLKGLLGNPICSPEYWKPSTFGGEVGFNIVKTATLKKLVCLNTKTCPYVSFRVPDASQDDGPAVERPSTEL
Method: as §2
(§4) Compound II was diluted in DME medium (DMEM) with 1% of antibiotics/antimycotics solution and 2 mM L-glutamine (Sigma, Deisenhofen) using DMSO (final concentration 0.1%) as solubility promoter. After adding 50 μl of compound II the tests were incubated for 60 min. at 37° C. Subsequently, 50 μl of calciumionophor A23187 (final concentration 50 μM) were added to stimulate the eicosanoid synthesis. After incubating for further 30 min. at 37° C. the microtiter plates were centrifuged for 5 min. at 4° C. with 1500 g. The plasma was pipetted off and frozen at −80° C. until analysed.
as §3

IL-1β = experiment: Synthesis of IL-1β in LPS-stimulated activated murine peritoneal macrophages; type: cell-based, mouse; conditions: for IL-1β: LPS 1 μg/ml, 24 h, average of three parallel tests; for IL-1β Effect (%): percentage change vs solvent control
Method: as §1

lipoxygenase (LO) = molecular target: T3, lipoxygenase (LO) (Homo sapiens, UniProt P09917); experiment: Lipoxygenase activity in human whole blood (cystenyl-LT after A23187); type: cell-based; conditions: for Cystenyl-LT: A23187 50 μM; for Cystenyl-LT Effect (%): percentage change vs solvent control
T3 construct: endogenous in cells; host or cells: heparinised human whole blood (leukocytes), stimulated with A23187
T3 sequence (P09917 1-674): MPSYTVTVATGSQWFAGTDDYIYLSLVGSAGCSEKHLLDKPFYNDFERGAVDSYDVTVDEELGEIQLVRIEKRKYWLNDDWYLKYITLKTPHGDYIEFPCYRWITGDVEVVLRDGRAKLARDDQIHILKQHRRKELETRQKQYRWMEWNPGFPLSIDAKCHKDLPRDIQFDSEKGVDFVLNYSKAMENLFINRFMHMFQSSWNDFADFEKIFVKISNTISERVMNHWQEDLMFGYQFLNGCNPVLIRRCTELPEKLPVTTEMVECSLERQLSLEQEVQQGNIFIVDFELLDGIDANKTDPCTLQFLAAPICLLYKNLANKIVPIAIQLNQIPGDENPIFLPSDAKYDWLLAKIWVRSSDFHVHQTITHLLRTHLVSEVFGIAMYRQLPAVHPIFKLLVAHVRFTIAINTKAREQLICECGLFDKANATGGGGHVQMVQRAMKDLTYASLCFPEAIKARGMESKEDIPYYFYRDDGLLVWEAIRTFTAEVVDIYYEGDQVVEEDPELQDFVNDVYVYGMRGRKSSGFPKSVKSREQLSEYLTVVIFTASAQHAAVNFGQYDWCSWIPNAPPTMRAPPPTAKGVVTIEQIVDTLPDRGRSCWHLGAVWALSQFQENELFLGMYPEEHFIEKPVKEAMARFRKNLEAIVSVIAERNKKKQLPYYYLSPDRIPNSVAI
Method: as §2, §4, §3

IL-6 = experiment: Synthesis of IL-6 in LPS-stimulated activated murine peritoneal macrophages; type: cell-based, mouse; conditions: for IL-6 pg/ml: LPS 1 μg/ml, 24 h, average of three parallel tests; for IL-6 Effect (%): percentage change vs solvent control
Method: as §1

[2] = 10 μg/ml (first line so printed, r17-18), human whole blood
[3] = 10 μg/ml (first line so printed, r17-18)
[4] = 10 μg/ml (second line so printed, r19-20), human whole blood
[5] = 10 μg/ml (second line so printed, r19-20)
[6] = 30 μg/ml, human whole blood, average of two parallel tests
[7] = 100 μg/ml, human whole blood, average of two parallel tests

Structure (SMILES): Cc1c(C)c2c(c(C)c1O)CCC(C)(C(=O)O)O2 (centres unmarked) [Trolox, reference compound]
half-maximal inhibitory concentration, autoxidation of lipids [1]: 1665 ng/mL

PGE2 (cyclooxygenase-2 (COX2); [2]): 3679 pg/mL
PGE2 Effect (%) (cyclooxygenase-2 (COX2); [3]): −66%
PGE2 (cyclooxygenase-2 (COX2); [4]): 5499 pg/mL
PGE2 Effect (%) (cyclooxygenase-2 (COX2); [5]): −49%
PGE2 (cyclooxygenase-2 (COX2); [6]): 2626 pg/mL
PGE2 Effect (%) (cyclooxygenase-2 (COX2); 30 μg/ml): −76%
PGE2 (cyclooxygenase-2 (COX2); [7]): 2232 pg/mL
PGE2 Effect (%) (cyclooxygenase-2 (COX2); 100 μg/ml): −79%
inhibition of the activity of COX2 (in words) (cyclooxygenase-2 (COX2); human whole blood): potent inhibition
TXB2 (cyclooxygenase-1 (COX1); [2]): 7825 pg/mL
TXB2 Effect (%) (cyclooxygenase-1 (COX1); [3]): −20%
TXB2 (cyclooxygenase-1 (COX1); [4]): 7278 pg/mL
TXB2 Effect (%) (cyclooxygenase-1 (COX1); [5]): −26%
TXB2 (cyclooxygenase-1 (COX1); [6]): 9993 pg/mL
TXB2 Effect (%) (cyclooxygenase-1 (COX1); 30 μg/ml): +2%
TXB2 (cyclooxygenase-1 (COX1); [7]): 9115 pg/mL
TXB2 Effect (%) (cyclooxygenase-1 (COX1); 100 μg/ml): −7%
effect on the activity of COX1 (in words) (cyclooxygenase-1 (COX1); human whole blood): hardly affected
Cystenyl-LT (lipoxygenase (LO); [2]): 3557 pg/mL
Cystenyl-LT Effect (%) (lipoxygenase (LO); [3]): −51%
Cystenyl-LT (lipoxygenase (LO); [4]): 5193 pg/mL
Cystenyl-LT Effect (%) (lipoxygenase (LO); [5]): −28%
Cystenyl-LT (lipoxygenase (LO); [6]): 2089 pg/mL
Cystenyl-LT Effect (%) (lipoxygenase (LO); 30 μg/ml): −71%
Cystenyl-LT (lipoxygenase (LO); [7]): 661 pg/mL
Cystenyl-LT Effect (%) (lipoxygenase (LO); 100 μg/ml): −91%
inhibition of the activity of LO (in words) (lipoxygenase (LO); human whole blood): potent inhibition
Structure (SMILES): O=c1ccc2cc(O)c(O)c(O)c2o1 [Compound II, 6,7,8-Trihydroxy-2H-1-benzopyran-2-one]
TNF-α (TNF-α; 10 μg/ml): 10050 pg/mL
TNF-α Effect (%) (TNF-α; 10 μg/ml): +19%
TNF-α (TNF-α; 30 μg/ml): 10189 pg/mL
TNF-α Effect (%) (TNF-α; 30 μg/ml): +21%
inhibition of the synthesis of TNF-α (in words) (TNF-α; 100 μg/ml): significant inhibition
TNF-α (TNF-α; 100 μg/ml): 6251 pg/mL
TNF-α Effect (%) (TNF-α; 100 μg/ml): −26* %
half-maximal inhibitory concentration, autoxidation of lipids [1]: 53 ng/mL
IL-1β (IL-1β; 10 μg/ml): 3789 pg/mL
IL-1β Effect (%) (IL-1β; 10 μg/ml): +7%
IL-1β (IL-1β; 30 μg/ml): 3356 pg/mL
IL-1β Effect (%) (IL-1β; 30 μg/ml): −6%
inhibition of the synthesis of IL-1β (in words) (IL-1β; 100 μg/ml): significant inhibition
IL-1β (IL-1β; 100 μg/ml): 430 pg/mL
IL-1β Effect (%) (IL-1β; 100 μg/ml): −88* %
IL-6 pg/ml (IL-6; 10 μg/ml): 23078 pg/mL
IL-6 Effect (%) (IL-6; 10 μg/ml): −27* %
IL-6 pg/ml (IL-6; 30 μg/ml): 22519 pg/mL
IL-6 Effect (%) (IL-6; 30 μg/ml): −28* %
inhibition of the synthesis of IL-6 (in words) (IL-6; 100 μg/ml): significant inhibition
IL-6 pg/ml (IL-6; 100 μg/ml): 976 pg/mL
IL-6 Effect (%) (IL-6; 100 μg/ml): −97* %
